Patent EP1283052A1, “Pharmaceutical composition containing caspase-8 and /or caspase-9 useful for overcoming glucocorticoid- and cancer therapy-induced apoptosis of tumours” (Deutsches Krebsforschungszentrum Stiftung des öffentlichen …, priority 2001, dated 2003)

Test system: caspase-9 and -6
Test: Fluorometric caspase-6/9 activity assay in CEM cells
Type: cell-based, human
Details: cisplatin 2 µg/ml alone, Fig. 5a
Experimental: • (a) P693 and CEM cells were treated with cisplatin (2 µg/ml) in the absence or presence of DEX (1 µM) as indicated. 24 and 48 h following treatment cells were lysed and caspase-9 activity was determined using a fluorescent caspase-9 assay and spectroscopy. • (b) P5 and CEM cells were treated as described above. 24 h after stimulation Apaf-1 was immunoprecipitated from the cell extracts using a […]. Aliquotes of the precipitates were separated by three different gels and analysed by Western blotting using rabbit polyclonal Apaf-1, mAb cytochrome c or caspase-9 antibodies. The antibody heavy chain band (IgGH) ensures equal conditions. […]
• (A) Cell culture. […] The mice were given 0.28 mg/L DEX in drinking water, and the amount of water consumed was monitored. […] The tumour volumes were measured using callipers, and calculated using, as an approximation, the formula for volume of a hemi-ellipsoid: π(width^2 x length)/6. […] Early apoptotic changes were identified by staining of cells with fluoresceinthiocyanate (FITC)-conjugated annexin V and propidium iodide (Becton Dickinson, Heidelberg, Germany) and analysed by flow cytometry (FACScan, Becton Dickinson) as described (Herr et al., EMBO J. 16 (1997), 6200-6208) • (E) Immunohistochemistry. […] Bound antibodies were detected by FITC conjugated anti-mouse or anti-rabbit IgG (Molecular Probes Europe, Leiden, The Netherlands). […]

## N.N.[Cl][Pt][Cl] [cisplatin]
  caspase-6/9 activity: induced 24 h following cisplatin in P693 and CEM cells with increasing activity at 48 h
